# Test results reported in publication PMC6325219, “Preclinical Characterization of NVR 3-778, a First-in-Class Capsid Assembly Modulator against Hepatitis B Virus” (Antimicrobial Agents and Chemotherapy, 2018).
# Experiments:
# HBV [1] = test: Effect of human serum on antiviral activity in HepG2.2.15 cells; type: cell-based, hepatitis B virus (GT D); details: for EC50 / EC90: Hepatitis B virus, HepG2.2.15, 144 h, HepG2.2.15 cells, 6 days
# Procedure: To determine the effect of human protein binding on NVR 3-778 antiviral activity, HepG2.2.15 cells were incubated with increasing concentrations of NVR 3-778 in the presence of 0% to 40% human serum.
# In combination studies, cells were treated with compounds either alone or in combination after combining the compounds in a checkerboard format. In studies examining the effect of human serum, serially diluted NVR 3-778 was added into cell culture medium containing 0% to 40% human serum (BioreclamationIVT). Cells were incubated with the compounds for 3 days, after which the medium was removed, fresh medium containing the compounds was added to the cells, and the cells were incubated for another 3 days prior to harvesting of the supernatants or cells for antiviral assays. To quantify intracellular encapsidated rcDNA or encapsidated pgRNA, cells were first solubilized using lysis buffer containing 1% NP-40 and 10 mM CaCl2. The cytoplasmic fraction was then treated with S7 nuclease (6 units) to remove nonencapsidated nucleic acids, after which the S7 nuclease was inactivated by the addition of EDTA (0.5 M). […] The levels of HBV DNA were determined by a bDNA assay as described above (Affymetrix). Supernatants or cell lysates containing HBV RNA were treated with proteinase K (2.5 µg) at 50°C for 40 min, transferred to a capture plate containing HBV RNA probe sets, and hybridized overnight at 55°C. Captured HBV RNA was measured by the addition of a chemiluminescent substrate using a QuantiGene assay (Affymetrix). […] At day 6, the CellTiter-Glo reagent was added to the cells and viability was determined according to the manufacturer’s protocol (Promega). Luminescence signals were measured at 0.2 s using a Victor X4 multimode plate reader (PerkinElmer). […]
# Figure S3. Effect of human serum on NVR 3-778 antiviral activities. HepG2.2.15 cells were incubated with increasing concentrations of NVR 3-778 for 6 days in the presence of 0% (●), 10% […]
# HBV DNA concentrations were determined from supernatant and compared to untreated cells containing the corresponding concentration of human serum. Data points represent mean values from at least three independent antiviral studies, and standard deviations are shown as error bars.
# HBV [2] = system: HBV; set-up: method as in doi:10.1016/S0168-8278(16)00175-6; details: HBV-infected patients; cited from earlier work
# [3] = target: T1, recombinant HBV core protein (Hepatitis B virus genotype D subtype ayw, UniProt P03146); test: Capsid assembly of recombinant core protein, electron microscopy; type: biochemical; details: 1.2:1 compound-to-core monomer ratio, 0.15 M NaCl, room temperature overnight
# T1 construct: Electron microscopy with HBV capsid formed from recombinant HBV core protein was performed as described previously ([5])
# T1 sequence (P03146 1-149): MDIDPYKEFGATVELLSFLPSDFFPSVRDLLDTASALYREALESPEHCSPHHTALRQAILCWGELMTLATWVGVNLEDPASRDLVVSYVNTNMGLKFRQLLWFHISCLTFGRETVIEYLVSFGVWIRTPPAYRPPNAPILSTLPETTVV
# Procedure: FIG 1 NVR 3-778 targets HBV core protein and inhibits viral replication. (A) Chemical structure of NVR 3-778. (B) Purified recombinant HBV core protein in the absence or presence of NVR 3-778. NVR 3-778 was incubated with recombinant core protein (1.2:1 compound-to-core monomer ratio) in buffer containing 0.15 M NaCl at room temperature overnight prior to staining and imaging by electron microscopy. (C, D) The effect of NVR 3-778 on intracellular rcDNA, extracellular HBV DNA, or cell viability (C) or on intracellular encapsidated pgRNA- or extracellular HBV RNA-containing particles (D) was determined upon treating HepG2.2.15 cells with increasing concentrations of NVR 3-778. (E, F) The effect of TFV on intracellular rcDNA, extracellular HBV DNA, or cell viability (E) or on intracellular encapsidated pgRNA- or extracellular HBV RNA-containing particles (F) was determined upon treating HepG2.2.15 cells with increasing concentrations of TFV. Secreted HBV DNA and secreted HBV RNA levels were determined from the supernatant of HepG2.2.15 cells. Intracellular encapsidated rcDNA and pgRNA levels were determined upon NP-40 lysis of cells and by using S7 nuclease to remove nonencapsidated nucleic acids. Cell viability was determined by measuring ATP levels using the CellTiter-Glo assay. […]
# [4] = Hepatocyte stability, dog hepatocytes; type: in vitro ADME; details: 120 min incubation
# Procedure: (§1) Following in vitro incubation for 120 min with human, mouse, or dog hepatocytes, >85% of the NVR 3-778 remained intact. […] The fewest number of metabolites was found following incubation with human hepatocytes, where 92% of the NVR 3-778 remained after a 120-min incubation.
# [5] = Hepatocyte stability, mouse hepatocytes; type: in vitro ADME; details: 120 min incubation
# Procedure: as §1
# HBV GT C = test: Transient-transfection antiviral study in HepG2 cells, GT C; type: cell-based; details: Hepatitis B virus, HepG2, 72 h, read-out: EC50 (mean), HBV GT C
# Procedure: (§2) Cells were cotransfected with the HBV plasmids (100 ng/well) and a Gaussia expression plasmid (10 ng/well) (Thermo Scientific) using the Lipofectamine LTX Plus transfection reagent (Life Technologies). Transfection mixtures were removed after overnight incubation, and cells were treated with serially diluted NVR 3-778 at a final dimethyl sulfoxide (DMSO) concentration of 0.5%. After 3 days of incubation with the compound, the supernatants were collected and secreted Gaussia luciferase was measured using a Gaussia Flash luciferase assay kit (Thermo Scientific). […] Samples were diluted into lysis buffer (Affymetrix) containing 2.5 µg proteinase K (Affymetrix) at 50°C for 40 min. Intracellular encapsidated HBV DNA was denatured for 30 min at 25°C in 0.2 M NaOH (Sigma) and incubated with HBV DNA probes designed to hybridize to the minus-strand HBV DNA (Affymetrix). The denatured DNA was subsequently detected using a QuantiGene assay kit, according to the branched DNA (bDNA) assay recommended by the manufacturer (Affymetrix).
# HBV GT H = test: Transient-transfection antiviral study in HepG2 cells, GT H; type: cell-based; details: Hepatitis B virus, HepG2, 72 h, read-out: EC50 (mean), HBV GT H
# Procedure: as §2
# HBV [6] = system: HBV; set-up: method as in PMID 30181376; details: metabolically active primary human hepatocytes; cited from earlier work
# HBV GT F = test: Transient-transfection antiviral study in HepG2 cells, GT F; type: cell-based; details: Hepatitis B virus, HepG2, 72 h, read-out: EC50 (mean), HBV GT F
# Procedure: as §2
# [7] = 2% human serum as printed in the table (text: 20%) versus without human serum
# [8] = 10% human serum versus without human serum
# [9] = 0% human serum, supernatant HBV DNA
# [10] = 2% human serum as printed in the table (text: 20%)
# [11] = 10% human serum, supernatant HBV DNA
# [12] = 40% human serum, supernatant HBV DNA
structure (smiles),measurement,setting,value
O=C(Nc1cc(F)c(F)c(F)c1)c1ccc(F)c(S(=O)(=O)N2CCC(O)CC2)c1 [NVR 3-778],EC50 fold shift,HBV [1]; 0% human serum (reference),1
same,EC90 fold shift,HBV [1]; 0% human serum (reference),1.0
same,EC50 fold shift,HBV [1]; [7],9.3
same,EC90 fold shift,HBV [1]; [7],10.3
same,EC50 fold shift,HBV [1]; [8],4.5
same,EC90 fold shift,HBV [1]; [8],4.5
same,EC90 fold shift,HBV [1]; 40% human serum versus without human serum,15.2
same,EC50,HBV [1]; [9],0.4 ± 0.1 µM
same,EC90,HBV [1]; [9],1.5 ± 0.41 µM
same,EC50,HBV [1]; [10],3.7 ± 1 µM
same,EC90,HBV [1]; [10],15.9 ± 6.3 µM
same,EC50,HBV [1]; [11],1.8 ± 0.51 µM
same,EC90,HBV [1]; [11],6.9 ± 0.9 µM
same,EC50,HBV [1]; [12],6.3 ± 2 µM
same,EC90,HBV [1]; [12],23.5 ± 11.6 µM
same,"Antiviral effect, combination with pegIFN versus NVR 3-778 monotherapy",HBV [2],greatest antiviral effect
same,Effect on assembly of purified recombinant core protein,[3],effectively induced the formation of capsid-like particles
same,NVR 3-778 remaining intact,[4],> 85%
same,NVR 3-778 remaining intact,[5],> 85%
same,EC50,HBV GT C,0.34 µM
same,EC50,HBV GT H,0.58 µM
same,Increase in EC50 against HBV DNA replication in the presence of serum proteins,HBV [6],about 4 fold
same,EC50,HBV GT F,0.56 µM
